The source made the active and inactive calls. No cut-off for these calls is given here.
Assays:
Format in all cases: functional
Nucleic Acid [1] = experiment: Relative efficiency of supercoiled phi X174 DNA cleavage was determined; 4-10
Nucleic Acid [2] = experiment: Relative efficiency of supercoiled phi X174 DNA cleavage was determined; 1.25-2
Nucleic Acid [3] = experiment: DNA cleavage selectivity selected within singly 5' -end labeled w794 DNA was determined; N - None
Nucleic Acid [4] = experiment: Relative efficiency of supercoiled phi X174 DNA cleavage was determined
Nucleic Acid [5] = experiment: Relative efficiency of supercoiled phi X174 DNA cleavage was determined; 0.33-0.2

Cc1c(N)nc([C@H](CC(N)=O)NC[C@H](N)C(N)=O)nc1C(=O)N[C@H](C(=O)N[C@H](C)[C@@H](O)[C@H](C)C(=O)N[C@H](C(=O)NCCc1nc(-c2nc(C(=O)NCCC[S+](C)C)cs2)cs1)[C@@H](C)O)[C@@H](O[C@@H]1O[C@@H](CO)[C@@H](O)[C@H](O)[C@@H]1O[C@H]1O[C@H](CO)[C@@H](O)[C@H](OC(N)=O)[C@@H]1O)c1c[nH]cn1
Relative efficiency (Nucleic Acid [1]): 4

Cc1c(N)nc(C(CC(N)=O)NC[C@H](N)C(N)=O)nc1C(=O)NC(C(=O)NC(C)C(O)[C@H](C)C(=O)NC(C(=O)NCCc1nc(-c2nc(C(=O)NCCC[S+](C)C)cs2)cs1)C(C)O)C(O)c1c[nH]cn1 (stereo partly specified)
Relative efficiency (Nucleic Acid [2]): 1.25

C[C@H](NC(=O)C(Cc1c[nH]cn1)NC(=O)c1cc(N)nc(C(CC(N)=O)NC[C@H](N)C(N)=O)n1)C(=O)O (stereo partly specified)
Selectivity (Nucleic Acid [3]): inactive
Relative efficiency (Nucleic Acid [4]): 1

C[C@H](NC(=O)C(Cc1c[nH]cn1)NC(=O)c1cc(N)nc(CNC[C@H](N)C(N)=O)n1)C(=O)O (stereo partly specified)
Relative efficiency (Nucleic Acid [5]): 0.2
Selectivity (Nucleic Acid [3]): inactive
